The values below come from US20240379187A1, “SYSTEMS AND METHODS FOR OMICS-BASED ANALYSIS OF GENE EXPRESSION” (priority 2023, published 2024).

The subject of test [1] is C. difficile. The following applies: cited from earlier work.
The test system of test [2] is C. difficile. Put plainly: CAT-GxD re-analysis of public C. difficile gene expression datasets (heatmap, PCA, STRING network, KEGG PTS pathway overlay) after DCA or succinate exposure. The following applies: for most of the Glc family phosphorylation and L-ascorbate phosphorylation (KEGG PTS pathway): unchanged in Δsig54. The format is cell-based, Clostridioides difficile. An excerpt: Typically, specific gene expression datasets and protein quantitation datasets for the selected target organism are collected and made available. In an exemplary form, C. difficile-specific gene expression datasets and protein quantitation datasets were collected from GEO database and ProteomeXchange databases, respectively. An SQL database was generated using RSQlite (version 2.3.4) (25) to incorporate the 56 nonredundant GEO transcriptomics datasets and 8 quantitative proteomic datasets. GEO subseries datasets already available in their respective superseries dataset were excluded. Quantitative total proteomic datasets were included; those focused on post-translational modification studies were excluded. To integrate and normalize the datasets, gene IDs were matched to the Ensembl stable IDs of the widely accepted C. difficile 630 reference strain using BLASTp, using protein identity and gene position comparisons and given the NCBI format CD630. Pre-computed log2 ratios without any gene duplication were imported as is. Studies with replicate log2 ratios assigned for a gene ID (common in microarray experiments due to replicate spots) were solved by computing the median log2 ratio. Two-channel microarray experiments with duplicate ratios assigned to a gene were solved by computing the average of the complementary ratios then log2 transformed. Reads Per Kilobase Million (RPKM) of raw RNASeq data were computed. For datasets without any computed ratios, log2 ratios were calculated for each treatment vs. control, and median normalization was performed. Gene classifications (described in Input and Data Filtering) were compiled to provide a comprehensive and robust search.
To glean additional insight into the interactions between the remaining 26 genes, the analysis was transitioned to the STRING database by clicking on the STRING icon at the top left of the page (expression information, however, will not ‘carry over’). […] The least number of nodes with the higher network association scores were selected to bridge the clusters. […] Next, the 5 bridging nodes and rpoN/sigL/sig54 were added to the 26 gene set and re-entered in the CAT-GXD's ‘Search’ bar. […] In order to link the separate networks, the 26 genes were sent to the STRING database by clicking on the STRING icon.
In the pathway tab in CAT-GxD, gene expression data for specific conditions can be overlaid on selected KEGG pathways.

In test [3] the test system is C. difficile. The note with it: cited from earlier work. The source holds these as a separate data set.
[4] abbreviates: C. difficile exposed to 80 mM succinate for 24 hours.
[5] abbreviates: C. difficile treated with 80 mM succinate for 24 hours.
Setting [6] is: C. difficile exposed to 240 μM DCA for 48 hours.
The mark [7] stands for this setting: DCA exposure, compared with succinate exposure.

The structures appear in SMILES notation.

On to `O=C(O)CCC(=O)O` [succinate], for which the “mtlF expression in succinate induced biofilms” value with C. difficile [1] was “downregulation”. In the test with C. difficile [2] (setting [4]), the “expression of bridging node pfo of clusters [1] and [3]” value is “upregulated”; the “expression of central bridging node pheA” value is “upregulated”; the “expression of cluster [2] bridging node ptsH” value is recorded as “downregulated”. In addition, in the test on C. difficile [2] (setting [5]), the SigL expression result was “upregulation”; the “genes (clusters [1] and [3]) displaying contrasting expression patterns relative to Δsig54” value is recorded as 13 of 27; the “genes (of the 10 of cluster [2]) with similar downregulation patterns as with Sig54 loss” value is 7 of the 10. Also, the “cellobiose, fructoselysine and sorbitol phosphorylation (KEGG PTS pathway)” value in the test with C. difficile [2] (succinate exposure, compared with DCA exposure) is given as “increased”. The “most of the Glc family phosphorylation and L-ascorbate phosphorylation (KEGG PTS pathway)” value with C. difficile [2] (succinate ratio (24 hrs biofilm)) is listed as “downregulated”. In the test with C. difficile [3], the “biofilm formation in C. difficile” value is given as “induce biofilm formation”. In addition, the “biofilm thickness compared with DCA-induced biofilm” value in the test on C. difficile [3] (succinate versus DCA) is listed as “significantly thicker biofilm”.
For the compound `C[C@H](CCC(=O)O)[C@H]1CC[C@H]2[C@@H]3CC[C@@H]4C[C@H](O)CC[C@]4(C)[C@H]3C[C@H](O)[C@]12C` [DCA], in the test on C. difficile [2] (setting [6]), the SigL/Sig54/RpoN expression entry is recorded as “downregulated”, the “expression of central bridging node pheA” value is recorded as “upregulated”, the “genes of cluster [2] downregulated” value is 3 of 10 and the “number of the 27 Δsig54 downregulated genes also downregulated” value is listed as 19 of the 27. For the same compound, the bridging nodes downregulated in the test with C. difficile [2] (C. difficile exposed to 240 μM DCA for 48 hours, bridging nodes ptsH, pheA, pfo, CD3092, CD3640) is 4 of the 5. In the test on C. difficile [2] (DCA exposure (240 μM, 48 hours)), the “expression of cluster [2] bridging node ptsH” value is “downregulated”. In the test on C. difficile [2] (setting [7]), the “mannitol (mtlF) phosphorylation (KEGG PTS pathway)” value was “increased” and the “sorbitol phosphorylation (KEGG PTS pathway)” value is listed as “decreased”. In the test on C. difficile [2] (DCA ratio (240 μM, 48 hrs)), the “most of the Glc family phosphorylation and L-ascorbate phosphorylation (KEGG PTS pathway)” value is listed as “downregulated”. Also, the “biofilm formation in C. difficile” value with C. difficile [3] is “induce biofilm formation”.
